Measured values taken from patent US9493453B2, “Piperazinyl pyrimidine derivatives, preparation method and use thereof” (INSTITUTE OF PHARMACOLOGY AND TOXICOLOGY ACADEMY OF …, priority 2012, dated 2016).
Read-outs that look alike come from different tables or passages of the source.

How the values were obtained:
CCR4 receptor = target: T1, CCR4 receptor (Homo sapiens, UniProt P51679); assay: Inhibition of MDC/TARC/C27 mediated chemotactic response of CCR4-transfected HEK293 cells (Boyden chamber); type: cell-based; conditions: chemotactic inhibition rate, compound 1 μM, HEK293 cells transfected with pCDI-CCR4, 5 hours
T1 construct: cDNA fragments of receptor open reading frame were respectively inserted into pcDI; expressed in transfected cells; host or cells: HEK293 cells, transiently transfected by electroporation with pCDI-CCR4
T1 sequence (P51679 1-360): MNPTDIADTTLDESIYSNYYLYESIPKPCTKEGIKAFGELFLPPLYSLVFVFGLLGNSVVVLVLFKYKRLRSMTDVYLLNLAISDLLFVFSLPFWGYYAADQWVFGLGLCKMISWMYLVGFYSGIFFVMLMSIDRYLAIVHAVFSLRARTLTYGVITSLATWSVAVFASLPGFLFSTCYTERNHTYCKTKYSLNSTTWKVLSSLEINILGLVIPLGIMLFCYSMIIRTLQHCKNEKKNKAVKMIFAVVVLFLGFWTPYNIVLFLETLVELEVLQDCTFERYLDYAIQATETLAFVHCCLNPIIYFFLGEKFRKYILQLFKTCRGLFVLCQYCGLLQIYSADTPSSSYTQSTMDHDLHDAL
Description: Whether or not compounds 1-14 of the present invention can inhibit MDC (Peprotech) mediated chemotactic response of HEK293 cells was studied by using Boyden chamber (Neuro Probe, Inc.).
1. Construction of Receptor Expression Plasmid:
cDNA fragments including human chemokine receptor open reading frame were obtained by the following method: CCR4 receptor was cloned from a cDNA library of K562 cells through polymerase chain reaction (PCR). Primers were designed according to the sequence of Gen-Bank™ accession: CCR4 (NM_005508.2). cDNA fragments of receptor open reading frame were respectively inserted into pcDI (vector transformed in the chamber: eukaryotic expression vector obtained by replacing a BglII KpnI fragment of pcDNA3 (Invitrogen Corporation) plasmid with a BglII KpnI fragment of pCI (Promega Corporation) plasmid) expression vector so as to make them effectively express in HEK293 cells.
HEK293 cells were cultured in RPMI 1640 (Life Technologies, Inc.) containing 10% heat-inactivated fetal bovine serum, 100 U/mL penicillin, 100 μg/mL streptomycin. Each 4×10^6 HEK293 cells/400 μL were transiently transfected through electroporation with 15 μg chemokine receptor expression plasmids, under the condition of 120 V for 20 ms, the instrument used being electric pulse generator (Electro Square porator ECM 830, BTX, San Diego, Calif.). After 36-48 hr, chemotactic assay was carried out.
3. The Inhibitory Effect on MDC/TARC/C27 Mediated Chemotactic Response of HEK293 Cells
Chemokines MDC/TARC/C27 were diluted to 10 ng/mL with RPMI1640 (Life Technologies, Inc.), 0.1% BSA (Sigma), and added to lower holes in a 48-hole chemotactic chamber, 27.5 μL each hole. Eukaryotic expression plasmids pCDI-CCR4 were electrically shifted to HEK293 cells, and cultured normally for 36 hr. The cells were digested, re-suspended with RPMI1640, 10% FBS (Life Technologies, Inc.), and subjected to rotary incubation at 37° C. for 6.5 hours. The cells were washed twice with RPMI1640, and suspended in RPMI1640, 0.1% BSA, with a final concentration of 1×10^6/mL. The cells and the candidate compound dissolved in DMSO (Sigma) were subjected to rotary incubation at room temperature for half an hour, the final concentration of the candidate compound being 1 μM, and the final concentration of DMSO being 0.1%, and then added to upper holes in the chemotactic chamber, 55 μL each hole. The two layers were spaced by a polycarbon membrane with pore size of […] (Neuro Probe, Inc.). The chemotactic reaction was carried out in 5% CO2 at 37° C. for 5 hours. There were three groups of control in the experiment, wherein the first group was positive control, in which the transfected cells were directly added to upper holes without incubated with the candidate compound, while chemokines MDC/TARC/C27 were added to lower holes. The second group was negative control, in which the transfected cells were directly added to upper holes without incubated with the candidate compound, while RPMI1640, 0.1% BSA were added to lower holes. The third group was solvent DMSO control of the candidate compound, in which the transfected cells and DMSO were incubated at room temperature, the final concentration of DMSO being 0.1%, while chemokines MDC/TARC/C27 were added to lower holes. After completion of the chemotactic reaction, the membrane was removed, fixed and stained, and, at 400× high magnification, five horizons were randomly selected to count the cells, which were then summed. The ratio of the sum of the numbers of cells in five horizons at high magnification in each experimental group to the sum of the numbers of cells in five horizons at high magnification in the negative control group is obtained as Chemotactic Index (CI). Chemotactic inhibition rate was calculated as follows: […]

mice rhinitis model = assay: Mice rhinitis model experiment (OVA-sensitized BALB/c mice); type: in vivo; conditions: Example 8 compound 1 μg/Kg, budesonide 1.28 mg/Kg
Description: Mice Rhinitis Model Experiment
Female BALB/c mice (6-8 weeks) were sensitized with chicken ovalbumin (OVA, Sigma-Aldrich, St Louis, Mo., USA). The compound of the present invention (for example, the compound of Example 8) was administered to nasal mucosa, at a dose 1 μg/Kg. Glucocorticoid hormonal drug budesonide, a first-line clinical drug, was used as positive control, at a dose 1.28 mg/Kg. Meanwhile, there were provided a normal group wherein the mice were not sensitized and not administered, and an OVA group wherein the mice were sensitized and not administered. The following five indicators were detected: the number of sneezing, the number of nasal scratching within 10 min after administration; IL-4 level in bronchoalveolar lavage fluid; serum IgE level; lung tissue inflammation score. Lung tissue inflammation score was rated according to a single blind method: inflammation was divided into four levels from mild to severe, marked as 0-3 scores: 0 representing no detected inflammation; 1 representing occasional inflammatory cells being visible; 2 representing bronchus or blood vessel being surrounded by eosinophils, but less than five cell layers; 3 representing bronchus or blood vessel being surrounded by a large number of eosinophils, with 5 or more cell layers.

[1] = chemokine C27 10 ng/mL, read-out: C27 inhibition rate
[2] = chemokine MDC 10 ng/mL, read-out: MDC inhibition rate
[3] = chemokine TARC 10 ng/mL, read-out: TARC inhibition rate
[4] = OVA-sensitized female BALB/c mice, nasal mucosa, within 10 min after administration

Row | SMILES | inhibition at 1 µM (CCR4 receptor; [1]) [%] | inhibition at 1 µM (CCR4 receptor; [2]) [%] | inhibition at 1 µM (CCR4 receptor; [3]) [%] | IL-4 (mice rhinitis model; IL-4 level in bronchoalveolar lavage fluid, OVA-sensitized mice) [pg/mL] | Nasal scratching (mice rhinitis model; [4]) [times/10 mins] | Sneezing (mice rhinitis model; [4]) [times/10 mins] | Inflammation score (mice rhinitis model; lung tissue inflammation score 0-3, single blind, OVA-sensitized mice) | IgE (mice rhinitis model; serum IgE level, OVA-sensitized mice) [ng/mL]
1 | O=C(C1CCCCC1)N1CCN(c2nc(NCc3ccc(Cl)cc3Cl)c3cccnc3n2)CC1 [Compound 12, cyclohexyl{4-{4-[(2,4-dichlorobenzyl)amino]pyrido[2,3-d]pyrimidin-2-yl}piperazin-1-yl}methanone] | 6.17 | 57.2 | 61.1 | – | – | – | – | –
2 | COC(CN(C)c1cc(NCc2ccc(Cl)cc2Cl)nc(N2CCN(C(=O)CCSC)CC2)n1)OC [Compound 3, 1-{4-{4-[(2,4-dichlorobenzyl)amino]-6-[(2,2-dimethoxyethyl)methylamino]pyrimidin-2-yl}piperazin-1-yl}-3-methylthiopropanone] | 43.9 | 35.5 | 58.3 | – | – | – | – | –
3 | CC(C)C(=O)N1CCN(c2nc(NCc3ccc(Cl)cc3Cl)c3cccnc3n2)CC1 [Compound 11, 1-{4-{4-[(2,4-dichlorobenzyl)amino]pyrido[2,3-d]pyrimidin-2-yl}piperazin-1-yl}-2-methylpropanone] | 35.2 | 32.3 | 61.4 | – | – | – | – | –
4 | CCCN1CCN(c2nc(NCc3ccc(Cl)cc3Cl)c3cccnc3n2)CC1 [Compound 13, 4-[(2,4-dichlorobenzyl)amino]-2-(4-propylpiperazin-1-yl)pyrido[2,3-d]pyrimidine] | 16.7 | 48.8 | 35.2 | – | – | – | – | –
5 | COCCN(CCOC)c1cc(NCc2ccc(Cl)cc2Cl)nc(N2CCN(C(=O)C3CCCCC3)CC2)n1 [Compound 7, {4-{4-[bis(2-methoxyethyl)amino]-6-(2,4-dichlorobenzylamino)-pyrimidin-2-yl}piperazin-1-yl}cyclohexylmethanone] | 37.9 | 30 | 51 | – | – | – | – | –
6 | O=C([C@@H]1CSCCN1)N1CCN(c2nc(Cl)cc(NCc3ccc(Cl)cc3Cl)n2)CC1 [Compound 9, (R)-{4-{4-chloro-6-[(2,4-dichlorobenzyl)amino]pyrimidin-2-yl}piperazin-1-yl}(thiomorpholin-3-yl)methanone] | 39.5 | 22.2 | 10.4 | – | – | – | – | –
7 | COC(CN(C)c1cc(NCc2ccc(Cl)cc2Cl)nc(N2CCN(C(=O)C(C)C)CC2)n1)OC [Compound 2, 1-{4-{4-[(2,4-dichlorobenzyl)amino]-6-[(2,2-dimethoxyethyl)methylamino]pyrimidin-2-yl}piperazin-1-yl}-2-methylpropanone] | 39 | 36.1 | 41.7 | – | – | – | – | –
8 | COCCN(CCOC)c1cc(NCc2ccc(Cl)cc2Cl)nc(N2CCN(C(=O)CCSC)CC2)n1 [Compound 6, 1-{4-{4-[bis(2-methoxyethyl)amino]-6-(2,4-dichlorobenzylamino)-pyrimidin-2-yl}piperazin-1-yl}-3-methylthiopropanone] | 51.2 | 19.4 | 55.7 | – | – | – | – | –
9 | O=C([C@@H]1CSCCN1)N1CCN(c2nc(NCc3ccc(Cl)cc3Cl)c3cccnc3n2)CC1 [Compound 14, (R)-{4-{4-[(2,4-dichlorobenzyl)amino]pyrido[2,3-d]pyrimidin-2-yl}piperazin-1-yl}(thiomorpholin-3-yl)methanone] | 30.5 | 62.1 | 73.6 | – | – | – | – | –
10 | CCC(=O)N1CCN(c2nc(NCc3ccc(Cl)cc3Cl)c3cccnc3n2)CC1 [Compound 10, 1-{4-{4-[(2,4-dichlorobenzyl)amino]pyrido[2,3-d]pyrimidin-2-yl}piperazin-1-yl}propanone] | 38.3 | 32.3 | 59.8 | – | – | – | – | –
11 | COCCN(CCOC)c1cc(NCc2ccc(Cl)cc2Cl)nc(N2CCN(C(=O)C(C)C)CC2)n1 [Compound 5, 1-{4-{4-[bis(2-methoxyethyl)amino]-6-(2,4-dichlorobenzylamino)-pyrimidin-2-yl}piperazin-1-yl}-2-methylpropanone] | 40.1 | 54.5 | 39.1 | – | – | – | – | –
12 | CCC(=O)N1CCN(c2nc(NCc3ccc(Cl)cc3Cl)cc(N(CCOC)CCOC)n2)CC1 [Compound 4, 1-{4-{4-[bis(2-methoxyethyl)amino]-6-(2,4-dichlorobenzylamino)-pyrimidin-2-yl}piperazin-1-yl}propanone] | 34.6 | 54.9 | 45.2 | – | – | – | – | –
13 | CCC(=O)N1CCN(c2nc(NCc3ccc(Cl)cc3Cl)cc(N(C)CC(OC)OC)n2)CC1 [Compound 1, 1-{4-{4-[(2,4-dichlorobenzyl)amino]-6-[(2,2-dimethoxyethyl)methylamino]pyrimidin-2-yl}piperazin-1-yl}propanone] | 25.3 | 36.3 | 46.4 | – | – | – | – | –
14 | CCCC1O[C@@H]2C[C@H]3[C@@H]4CCC5=CC(=O)C=C[C@]5(C)[C@H]4[C@@H](O)C[C@]3(C)[C@]2(C(=O)CO)O1 (some centres unmarked) [Budesonide, budesonide, reference compound] | – | – | – | 2.9 ± 1.5 | 12.0 ± 1.3 | 31.7 ± 4.0 | 1.5 ± 0.6 | 2822 ± 51
